Experimental data from ChEMBL document CHEMBL1121763, “2,3-Dihydrobenzofuran-2-ones: a new class of highly potent antiinflammatory agents” (J Med Chem, 1981).

Key:
[1] = target: Cyclooxygenase (Bos taurus)
Rattus norvegicus [2] = species: Rattus norvegicus; test: animal or person; assay type: functional; conditions: po, 3 h
Description: Compound administered perorally for inhibition of carrageenan induced paw edema after 3h in rat

Rattus norvegicus [3] = test: Inhibition of adjuvant-induced polyarthritis in rat following p.o. administration.; assay type: functional; conditions: po

Structure (SMILES)	IC50 [1] [nM]	ED50 (Rattus norvegicus [2]) [mg/kg]	ED50 (Rattus norvegicus [3]) [mg/kg]
O=C1Cc2cc(C3CCCCC3)ccc2O1	10000	> 60	
O=C1Cc2ccccc2O1	> 100000	> 60	
O=C1Cc2cc([N+](=O)[O-])c(C3CCCCC3)cc2O1	500	6	4
O=C1Cc2cc(Br)c(C3CCCCC3)cc2O1	30	2	7
O=C1Cc2cc(Cl)c(-c3ccccc3)cc2O1	80	1	3
Cc1cc2c(cc1C1CCCCC1)OC(=O)C2C (configuration not stated)	100	6	< 3
Cc1cc2c(cc1C1CCCCC1)OC(=O)C2	100	3	1.5
O=C1Cc2ccc(C3CCCCC3)c(Br)c2O1	3000	36	> 30
O=C1Cc2ccc(C3CCCCC3)cc2O1	800	1	20
CCC1C(=O)Oc2cc(-c3ccccc3)ccc21 (configuration not stated)	50000	25	> 30
CC1C(=O)Oc2cc(C3CCCCC3)c(Cl)cc21 (configuration not stated)	70	0.3	1
O=C1Cc2cccc(C3CCCCC3)c2O1	100000	> 60	> 30
O=C(O)Cc1ccccc1Nc1c(Cl)cccc1Cl [DICLOFENAC]		3	2
COc1ccc2c(c1)c(CC(=O)O)c(C)n2C(=O)c1ccc(Cl)cc1 [INDOMETHACIN]		2	0.4

Further lines, with some results ahead:

IC50 [1] [nM]	Structure (SMILES)	ED50 (Rattus norvegicus [2]) [mg/kg]	ED50 (Rattus norvegicus [3]) [mg/kg]
10000	O=C1Cc2ccc(C3CCCC3)cc2O1	30	60
400	CC1C(=O)Oc2cc(C3CCCCC3)ccc21 (configuration not stated)	0.8	2.5
3000	CC(C)Cc1ccc2c(c1)OC(=O)C2	8	> 40
10000	COc1cc2c(cc1-c1ccccc1)OC(=O)C2	30	30
50000	O=C1Cc2cc(O)c(-c3ccccc3)cc2O1	> 30	
80	CC1C(=O)Oc2cc(-c3ccccc3)c(Cl)cc21 (configuration not stated)	0.3	2
500	CC1C(=O)Oc2cc(-c3ccccc3)ccc21 (configuration not stated)	2.5	14
1000	O=C1Cc2cc(Cl)c(C3CCCCC3)c(Cl)c2O1	2	30
700	O=C1Cc2ccc(-c3ccccc3)cc2O1	6	20
50	O=C1Cc2cc(Cl)c(C3CCCCC3)cc2O1 [CLOFURAC]	0.5	1
